Laboratory results from US9642920B2, “Therapeutic agent delivery system and method” (Case Western Reserve University, priority 2009, dated 2017).

Assays:
[1] = Fluorometry characterization of DOX and CD affinity (β-CD); type: binding; conditions: cell culture medium, 37° C.
Experimental: (§1) When DOX, a fluorescent compound, forms an inclusion complex with CD, the fluorescent signal is enhanced (1) due to diminished intermolecular quenching. Increasing the amount of β- and γ-CD monomers (0 mM-16 mM) were added to a constant concentration of DOX in cell culture medium at 37° C. (n=3). Aliquots were taken for fluorescence measurements (Synergy H1) with an excitation and emission wavelength of 498 nm and 590 nm, respectively. Based on a modified Benesi-Hildebrand equation, nonlinear regression analysis was performed in MATLAB to estimate the association constants (Ka).

[2] = Surface plasmon resonance affinity between DOX and β-CD; type: binding; conditions: HBS-N buffer pH 7.4
Experimental: (§2) Surface plasmon resonance (SPR) spectroscopy was performed on Biacore ×100 to characterize the affinity between DOX and β- and γ-CD. 6-NH2-β- and γ-CD monomers were immobilized onto CM5 sensor chips using amine-coupling chemistry. To optimize immobilization conditions, pH scouting was performed via suspending 0.1 mM of 6-NH2-β- and γ-CD monomers in various pH buffers (borate 8.5, HBS-N 7.4, PBS 7.4, acetate 5) and injecting the suspensions over the sensor chip surface. The carboxylic groups on the sensor chip surface were activated via n injection of 0.4 M EDC/0.1 M NHS. Surface immobilization in flow cell 2 proceeded with an injection of 0.1 mM of 6-amino-6-deoxy-β- or γ-CD monomers suspended in the previously determined optimal buffer, borate 8.5. Blank immobilization was performed in flow cell 1, which was used as a reference flow cell. Finally, unreacted reaction sites in both flow cells were inactivated by an injection of 1 M ethanolamine (pH 8.5). All injections were performed at […] for 7 min.
(§3) Injections of 50 mM sodium hydroxide was used to wash off any bound DOX and regenerate the sensor chip surface in between sample injections. Successful regeneration was confirmed by examining the baseline signal prior to each injection and that after regeneration. […]

[3] = Surface plasmon resonance affinity between DOX and γ-CD; type: binding; conditions: HBS-N buffer pH 7.4
Experimental: as §2, §3

[4] = Fluorometry characterization of DOX and CD affinity (γ-CD); type: binding; conditions: cell culture medium, 37° C.
Experimental: as §1

U-87 MG cells = experiment: Cytotoxicity of DOX against U-87 MG cells; type: cell-based, human; conditions: 2 μM of DOX
Experimental: After another 24 hr incubation, 20 μl of a 5 mg/ml MTT solution was added to each well. The cells were incubated for 3 hr and the medium was then replaced by 200 μl of DMSO. After 30 min incubation, the plate was read using Synergy H1 with an absorbance wavelength of 590 nm. The results were normalized to readings from a set of wells with cells treated with no DOX, which represented 100% survival. Percent cell death was defined as 1-percent survival.
A similar procedure was used when testing the cytoxicity of DOX against U-87 MG, a human glioblastoma cell line. However, instead of previously collected DOX solution, DOX solutions at desired concentrations were made fresh for this assay.

**Q.** With COc1cccc2c1C(=O)c1c(O)c3c(c(O)c1C2=O)C[C@@](O)(C(=O)CO)C[C@@H]3O[C@H]1C[C@H](N)[C@H](O)[C@H](C)O1 [DOX, doxorubicin] as the molecule, how does the “Association Constant Ka β-CD · DOX” value [1] read?
**A.** 153 ± 15 M⁻¹

**Q.** And the “Association Constant Ka β-CD · DOX” value [2]?
**A.** 205 ± 5 M⁻¹

**Q.** What about the “Association Constant Ka γ-CD · DOX” value [3] of the same molecule?
**A.** 490 ± 7 M⁻¹

**Q.** What about the “Association Constant Ka γ-CD · DOX” value [4] of the same molecule?
**A.** 264 ± 20 M⁻¹

**Q.** What about the “U-87 MG cells killed” value (U-87 MG cells) of the same molecule?
**A.** ~20%
